Measurements as given in the NIST ThermoML archive (doi:10.1021/je700261b).

Assay: xn = mol fraction of the nth substance listed
Settings: Liquid

CCCCO [butan-1-ol] + O=C=O
Settings | mass density [kg/m3]
333.08 K, 16957 kPa, x2 = 0.1842 | 803.2
333.08 K, 18103 kPa, x2 = 0.1842 | 804.27
333.08 K, 19053 kPa, x2 = 0.1842 | 805.14
333.08 K, 20044 kPa, x2 = 0.1842 | 806.03
333.08 K, 21090 kPa, x2 = 0.1842 | 807.01
333.08 K, 21974 kPa, x2 = 0.1842 | 807.82
333.08 K, 22960 kPa, x2 = 0.1842 | 808.7
333.08 K, 24014 kPa, x2 = 0.1842 | 809.64
333.08 K, 25045 kPa, x2 = 0.1842 | 810.58
342.85 K, 1014 kPa, x2 = 0.0251 | 772.92
342.85 K, 2013 kPa, x2 = 0.0251 | 773.93
342.85 K, 2982 kPa, x2 = 0.0251 | 774.9
342.85 K, 4039 kPa, x2 = 0.0251 | 775.94
342.85 K, 5057 kPa, x2 = 0.0251 | 776.91
342.85 K, 5993 kPa, x2 = 0.0251 | 777.79
342.85 K, 7067 kPa, x2 = 0.0251 | 778.78
342.85 K, 8025 kPa, x2 = 0.0251 | 779.69
342.85 K, 9013 kPa, x2 = 0.0251 | 780.6
342.85 K, 10012 kPa, x2 = 0.0251 | 781.51
342.85 K, 11010 kPa, x2 = 0.0251 | 782.43
342.85 K, 11969 kPa, x2 = 0.0251 | 783.27
342.85 K, 13080 kPa, x2 = 0.0251 | 784.23
342.85 K, 13925 kPa, x2 = 0.0251 | 784.95
342.85 K, 15055 kPa, x2 = 0.0251 | 785.93
342.85 K, 16002 kPa, x2 = 0.0251 | 786.72
342.85 K, 17016 kPa, x2 = 0.0251 | 787.57
342.85 K, 18007 kPa, x2 = 0.0251 | 788.39
342.85 K, 19019 kPa, x2 = 0.0251 | 789.22
342.85 K, 20027 kPa, x2 = 0.0251 | 790.06
342.85 K, 20996 kPa, x2 = 0.0251 | 790.82
342.85 K, 22019 kPa, x2 = 0.0251 | 791.65
342.85 K, 23034 kPa, x2 = 0.0251 | 792.46
342.85 K, 24052 kPa, x2 = 0.0251 | 793.28
342.85 K, 25090 kPa, x2 = 0.0251 | 794.07
342.87 K, 15510 kPa, x2 = 0.9698 | 598.32
342.87 K, 16022 kPa, x2 = 0.9698 | 613.97
342.87 K, 17033 kPa, x2 = 0.9698 | 640.58
342.87 K, 17988 kPa, x2 = 0.9698 | 661.78
342.87 K, 19001 kPa, x2 = 0.9698 | 681.25
342.87 K, 20036 kPa, x2 = 0.9698 | 698.56
342.87 K, 21044 kPa, x2 = 0.9698 | 713.53
342.87 K, 22014 kPa, x2 = 0.9698 | 726.53
342.87 K, 23003 kPa, x2 = 0.9698 | 738.6
342.87 K, 24019 kPa, x2 = 0.9698 | 749.89
342.87 K, 24944 kPa, x2 = 0.9698 | 759.52
342.88 K, 1975 kPa, x2 = 0.0857 | 776.2
342.88 K, 2955 kPa, x2 = 0.0857 | 777.28
342.88 K, 4033 kPa, x2 = 0.0857 | 778.42
342.88 K, 5015 kPa, x2 = 0.0857 | 779.45
342.88 K, 5957 kPa, x2 = 0.0857 | 780.4
342.88 K, 7027 kPa, x2 = 0.0857 | 781.49
342.88 K, 7999 kPa, x2 = 0.0857 | 782.5
342.88 K, 9007 kPa, x2 = 0.0857 | 783.51
342.88 K, 10003 kPa, x2 = 0.0857 | 784.47
342.88 K, 11007 kPa, x2 = 0.0857 | 785.43
342.88 K, 11951 kPa, x2 = 0.0857 | 786.34
342.88 K, 13010 kPa, x2 = 0.0857 | 787.34
342.88 K, 14012 kPa, x2 = 0.0857 | 788.24
342.88 K, 15065 kPa, x2 = 0.0857 | 789.2
342.88 K, 15994 kPa, x2 = 0.0857 | 790.07
342.88 K, 17007 kPa, x2 = 0.0857 | 790.98
342.88 K, 17999 kPa, x2 = 0.0857 | 791.83
342.88 K, 18990 kPa, x2 = 0.0857 | 792.72
342.88 K, 20029 kPa, x2 = 0.0857 | 793.58
342.88 K, 20993 kPa, x2 = 0.0857 | 794.43
342.88 K, 22004 kPa, x2 = 0.0857 | 795.26
342.88 K, 23039 kPa, x2 = 0.0857 | 796.17
342.88 K, 24019 kPa, x2 = 0.0857 | 796.97
342.88 K, 25064 kPa, x2 = 0.0857 | 797.88
342.92 K, 12062 kPa, x2 = 0.4972 | 795.68
342.92 K, 13090 kPa, x2 = 0.4972 | 797.59
342.92 K, 14017 kPa, x2 = 0.4972 | 799.27
342.92 K, 15047 kPa, x2 = 0.4972 | 801.1
342.92 K, 16026 kPa, x2 = 0.4972 | 802.79
342.92 K, 17041 kPa, x2 = 0.4972 | 804.51
342.92 K, 18053 kPa, x2 = 0.4972 | 806.18
342.92 K, 19028 kPa, x2 = 0.4972 | 807.77
342.92 K, 20046 kPa, x2 = 0.4972 | 809.4
342.92 K, 21062 kPa, x2 = 0.4972 | 810.98
342.92 K, 22043 kPa, x2 = 0.4972 | 812.48
342.92 K, 22996 kPa, x2 = 0.4972 | 813.92
342.92 K, 24003 kPa, x2 = 0.4972 | 815.43
342.92 K, 25073 kPa, x2 = 0.4972 | 816.99
342.94 K, 13074 kPa, x2 = 0.5965 | 795.03
342.94 K, 14051 kPa, x2 = 0.5965 | 797.49
342.94 K, 15068 kPa, x2 = 0.5965 | 799.99
342.94 K, 15189 kPa, x2 = 0.8663 | 716.88
342.94 K, 16052 kPa, x2 = 0.8663 | 728.37
342.94 K, 16064 kPa, x2 = 0.5965 | 802.35
342.94 K, 17059 kPa, x2 = 0.8663 | 740.13
342.94 K, 17076 kPa, x2 = 0.5965 | 804.68
342.94 K, 18027 kPa, x2 = 0.8663 | 749.98
342.94 K, 18056 kPa, x2 = 0.5965 | 806.85
342.94 K, 19037 kPa, x2 = 0.5965 | 808.99
342.94 K, 19050 kPa, x2 = 0.8663 | 759.3
342.94 K, 20036 kPa, x2 = 0.8663 | 767.54
342.94 K, 20067 kPa, x2 = 0.5965 | 811.18
342.94 K, 21031 kPa, x2 = 0.5965 | 813.15
342.94 K, 21038 kPa, x2 = 0.8663 | 775.36
342.94 K, 22050 kPa, x2 = 0.5965 | 815.2
342.94 K, 22085 kPa, x2 = 0.8663 | 782.79
342.94 K, 23030 kPa, x2 = 0.5965 | 817.14
342.94 K, 23032 kPa, x2 = 0.8663 | 789.07
342.94 K, 24031 kPa, x2 = 0.5965 | 819.08
342.94 K, 24045 kPa, x2 = 0.8663 | 795.41
342.94 K, 25028 kPa, x2 = 0.5965 | 820.94
342.94 K, 25042 kPa, x2 = 0.8663 | 801.31
343 K, 6024 kPa, x2 = 0.1842 | 782.23
343 K, 7050 kPa, x2 = 0.1842 | 783.43
343 K, 8037 kPa, x2 = 0.1842 | 784.59
343 K, 9052 kPa, x2 = 0.1842 | 785.73
343 K, 10057 kPa, x2 = 0.1842 | 786.87
343 K, 11053 kPa, x2 = 0.1842 | 787.96
343 K, 12027 kPa, x2 = 0.1842 | 789.03
343 K, 13076 kPa, x2 = 0.1842 | 790.12
343 K, 14026 kPa, x2 = 0.1842 | 791.16
343 K, 15081 kPa, x2 = 0.1842 | 792.24
343 K, 16028 kPa, x2 = 0.1842 | 793.21
343 K, 17031 kPa, x2 = 0.1842 | 794.24
343 K, 18020 kPa, x2 = 0.1842 | 795.22
343 K, 19009 kPa, x2 = 0.1842 | 796.2
343 K, 20030 kPa, x2 = 0.1842 | 797.2
343 K, 21066 kPa, x2 = 0.1842 | 798.2
343 K, 21978 kPa, x2 = 0.1842 | 799.07
343 K, 23062 kPa, x2 = 0.1842 | 800.09
343 K, 24031 kPa, x2 = 0.1842 | 801.02
343 K, 25044 kPa, x2 = 0.1842 | 801.97
352.77 K, 1022 kPa, x2 = 0.0251 | 763.98
352.77 K, 2029 kPa, x2 = 0.0251 | 765.11
352.77 K, 3006 kPa, x2 = 0.0251 | 766.15
352.77 K, 4015 kPa, x2 = 0.0251 | 767.17
352.77 K, 5041 kPa, x2 = 0.0251 | 768.25
352.77 K, 5988 kPa, x2 = 0.0251 | 769.24
352.77 K, 7026 kPa, x2 = 0.0251 | 770.25
352.77 K, 8000 kPa, x2 = 0.0251 | 771.2
352.77 K, 9059 kPa, x2 = 0.0251 | 772.24
352.77 K, 10017 kPa, x2 = 0.0251 | 773.14
352.77 K, 11016 kPa, x2 = 0.0251 | 774.17
352.77 K, 12004 kPa, x2 = 0.0251 | 775.04
352.77 K, 13003 kPa, x2 = 0.0251 | 775.95
352.77 K, 14039 kPa, x2 = 0.0251 | 776.91
352.77 K, 14988 kPa, x2 = 0.0251 | 777.75
352.77 K, 16084 kPa, x2 = 0.0251 | 778.74
352.77 K, 17004 kPa, x2 = 0.0251 | 779.54
352.77 K, 18003 kPa, x2 = 0.0251 | 780.41
352.77 K, 19004 kPa, x2 = 0.0251 | 781.28
352.77 K, 20007 kPa, x2 = 0.0251 | 782.15
352.77 K, 21029 kPa, x2 = 0.0251 | 783.01
352.77 K, 22044 kPa, x2 = 0.0251 | 783.86
352.77 K, 22995 kPa, x2 = 0.0251 | 784.65
352.77 K, 24056 kPa, x2 = 0.0251 | 785.52
352.77 K, 25098 kPa, x2 = 0.0251 | 786.41
352.79 K, 18068 kPa, x2 = 0.9698 | 596.97
352.79 K, 18999 kPa, x2 = 0.9698 | 619.03
352.79 K, 20007 kPa, x2 = 0.9698 | 639.88
352.79 K, 21053 kPa, x2 = 0.9698 | 659.01
352.79 K, 22011 kPa, x2 = 0.9698 | 674.59
352.79 K, 23058 kPa, x2 = 0.9698 | 690
352.79 K, 24106 kPa, x2 = 0.9698 | 703.93
352.79 K, 25050 kPa, x2 = 0.9698 | 715.49
352.82 K, 6041 kPa, x2 = 0.1842 | 772.14
352.82 K, 7041 kPa, x2 = 0.1842 | 773.4
352.82 K, 8024 kPa, x2 = 0.1842 | 774.6
352.82 K, 9042 kPa, x2 = 0.1842 | 775.87
352.82 K, 10044 kPa, x2 = 0.1842 | 777.07
352.82 K, 11026 kPa, x2 = 0.1842 | 778.23
352.82 K, 12073 kPa, x2 = 0.1842 | 779.44
